Measurements reported in PubChem BioAssay (NCI).
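Cultured in 96-well plates, cells were exposed to test compound for 48 hours across five concentrations. Definition used: TGI = concentration required for complete inhibition of growth.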 Where a SMILES comes first, the peptide text is derived from it. The star is where a group is joined. Boc = CC(C)(C)OC(=O)*

Tests used:
Assay in all cases: inhibition of tumour cell growth, NCI panel, 48 h
K-562 leukemia = test system: K-562 leukemia
NCI/ADR-RES ovarian = test system: NCI/ADR-RES ovarian
OVCAR-4 ovarian = test system: OVCAR-4 ovarian
SK-OV-3 ovarian = test system: SK-OV-3 ovarian
OVCAR-8 ovarian = test system: OVCAR-8 ovarian
U251 CNS = test system: U251 CNS
COLO 205 colon = test system: COLO 205 colon
RXF 393 renal = test system: RXF 393 renal
DU-145 prostate = test system: DU-145 prostate
HCT-116 colon = test system: HCT-116 colon

Structure (SMILES): CCOP(=O)(OCC)/C(C#N)=C/c1cnc(-c2ccccc2)[nH]1
- TGI (K-562 leukemia): > 100 µM
- TGI (NCI/ADR-RES ovarian): > 100 µM
- TGI (OVCAR-4 ovarian): > 100 µM
- TGI (SK-OV-3 ovarian): > 100 µM
- TGI (OVCAR-8 ovarian): > 100 µM
- TGI (U251 CNS): > 100 µM
- TGI (COLO 205 colon): > 100 µM
- TGI (RXF 393 renal): > 100 µM
- TGI (DU-145 prostate): > 100 µM
- TGI (HCT-116 colon): > 100 µM

Structure (SMILES): COc1ccccc1Nc1nc(N)nc(N)c1N=O
- TGI (K-562 leukemia): > 100 µM
- TGI (NCI/ADR-RES ovarian): > 100 µM
- TGI (OVCAR-4 ovarian): > 100 µM
- TGI (SK-OV-3 ovarian): > 100 µM
- TGI (OVCAR-8 ovarian): > 100 µM
- TGI (U251 CNS): > 100 µM
- TGI (COLO 205 colon): > 100 µM
- TGI (RXF 393 renal): > 100 µM
- TGI (DU-145 prostate): > 100 µM
- TGI (HCT-116 colon): > 100 µM

Structure (SMILES): OC1C2[C@@H](O)CCCN2C[C@@H](O)[C@H]1O (stereo not given in full)
- TGI (K-562 leukemia): > 100 µM
- TGI (NCI/ADR-RES ovarian): > 100 µM
- TGI (OVCAR-4 ovarian): > 100 µM
- TGI (SK-OV-3 ovarian): > 100 µM
- TGI (OVCAR-8 ovarian): > 100 µM
- TGI (U251 CNS): > 100 µM
- TGI (COLO 205 colon): > 100 µM
- TGI (RXF 393 renal): > 100 µM
- TGI (DU-145 prostate): > 100 µM
- TGI (HCT-116 colon): > 100 µM

Structure (SMILES): O=C(CCCCCCCCC(=O)NN1C(=O)/C(=C\c2ccc(O)c(O)c2)SC1c1ccc(Cl)cc1)NN1C(=O)/C(=C\c2ccc(O)c(O)c2)SC1c1ccc(Cl)cc1 (stereo not given)
- TGI (K-562 leukemia): > 75.9 µM
- TGI (NCI/ADR-RES ovarian): > 100 µM
- TGI (OVCAR-4 ovarian): > 100 µM
- TGI (SK-OV-3 ovarian): > 90.9 µM
- TGI (OVCAR-8 ovarian): 34 µM
- TGI (U251 CNS): > 55.1 µM
- TGI (COLO 205 colon): > 100 µM
- TGI (RXF 393 renal): 46.2 µM
- TGI (DU-145 prostate): 81.1 µM
- TGI (HCT-116 colon): > 100 µM

Structure (SMILES): COC(=O)CNC(=O)C(Cc1ccccc1)NC(=O)C(CCSC)NC(=O)C(Cc1ccc(O)cc1)NC(=O)OC(C)(C)C (stereo not given) (Boc-YMFG-OMe; configuration not given here)
- TGI (K-562 leukemia): > 100 µM
- TGI (NCI/ADR-RES ovarian): > 100 µM
- TGI (OVCAR-4 ovarian): > 100 µM
- TGI (SK-OV-3 ovarian): > 100 µM
- TGI (OVCAR-8 ovarian): > 100 µM
- TGI (U251 CNS): > 100 µM
- TGI (COLO 205 colon): > 100 µM
- TGI (RXF 393 renal): > 100 µM
- TGI (DU-145 prostate): > 100 µM
- TGI (HCT-116 colon): > 100 µM

Structure (SMILES): COc1cc(-c2cc(=O)c3cc4c(cc3[nH]2)OCO4)cc(OC)c1O
- TGI (K-562 leukemia): > 10 µM
- TGI (NCI/ADR-RES ovarian): > 10 µM
- TGI (OVCAR-4 ovarian): > 10 µM
- TGI (SK-OV-3 ovarian): > 10 µM
- TGI (OVCAR-8 ovarian): > 10 µM
- TGI (U251 CNS): > 10 µM
- TGI (COLO 205 colon): > 10 µM
- TGI (RXF 393 renal): > 10 µM
- TGI (DU-145 prostate): > 10 µM
- TGI (HCT-116 colon): > 10 µM

Structure (SMILES): O=C(NNC(=S)Nc1ccc(Cl)cc1)c1cc(-c2ccccc2)nc2ccccc12
- TGI (K-562 leukemia): 93.1 µM
- TGI (NCI/ADR-RES ovarian): 30.7 µM
- TGI (OVCAR-4 ovarian): 24.3 µM
- TGI (SK-OV-3 ovarian): 19.8 µM
- TGI (OVCAR-8 ovarian): 29.1 µM
- TGI (U251 CNS): 16.1 µM
- TGI (COLO 205 colon): 18.2 µM
- TGI (RXF 393 renal): 21.9 µM
- TGI (DU-145 prostate): 16.5 µM
- TGI (HCT-116 colon): 13.5 µM

Structure (SMILES): Cc1c(F)c(N)c2c(=O)cc(-c3ccc(NC(=O)CN(C)C)c(F)c3)oc2c1F
- TGI (K-562 leukemia): 98.9 µM
- TGI (NCI/ADR-RES ovarian): > 100 µM
- TGI (OVCAR-4 ovarian): > 92.5 µM
- TGI (SK-OV-3 ovarian): > 100 µM
- TGI (OVCAR-8 ovarian): > 100 µM
- TGI (U251 CNS): > 81.1 µM
- TGI (COLO 205 colon): > 100 µM
- TGI (RXF 393 renal): > 100 µM
- TGI (DU-145 prostate): > 100 µM
- TGI (HCT-116 colon): > 100 µM

Structure (SMILES): Cc1c(-c2nc3ccccc3[nH]2)c(=O)n(-c2ccccc2)n1C
- TGI (K-562 leukemia): > 100 µM
- TGI (NCI/ADR-RES ovarian): > 100 µM
- TGI (OVCAR-4 ovarian): > 100 µM
- TGI (SK-OV-3 ovarian): > 100 µM
- TGI (OVCAR-8 ovarian): > 100 µM
- TGI (U251 CNS): > 100 µM
- TGI (COLO 205 colon): > 100 µM
- TGI (RXF 393 renal): > 100 µM
- TGI (DU-145 prostate): > 100 µM
- TGI (HCT-116 colon): > 100 µM

Structure (SMILES): C=C(C)C12CC(COC(=O)c3ccccc3)C34OC5(OC1C3C1OC1(CO)C(O)C1(O)C(OC(=O)c3ccccc3)C(C)C(C(C)CCCCCCC5O)C14)O2 (stereo not given)
- TGI (K-562 leukemia): > 100 µM
- TGI (NCI/ADR-RES ovarian): > 100 µM
- TGI (OVCAR-4 ovarian): > 100 µM
- TGI (SK-OV-3 ovarian): > 100 µM
- TGI (OVCAR-8 ovarian): > 100 µM
- TGI (U251 CNS): > 74.6 µM
- TGI (COLO 205 colon): 24.4 µM
- TGI (RXF 393 renal): > 100 µM
- TGI (DU-145 prostate): > 100 µM
- TGI (HCT-116 colon): > 100 µM

Structure (SMILES): Brc1ccc(CCNCCN2CCCCC2)cc1
- TGI (K-562 leukemia): > 100 µM
- TGI (NCI/ADR-RES ovarian): 59.5 µM
- TGI (OVCAR-4 ovarian): 48.1 µM
- TGI (SK-OV-3 ovarian): 42 µM
- TGI (OVCAR-8 ovarian): 30.5 µM
- TGI (U251 CNS): 32.4 µM
- TGI (COLO 205 colon): 25.6 µM
- TGI (RXF 393 renal): 49.8 µM
- TGI (DU-145 prostate): > 100 µM
- TGI (HCT-116 colon): 24.4 µM

Structure (SMILES): CN(CCC#N)c1ccc(/C=C2\SC(=S)NC2=O)cc1
- TGI (K-562 leukemia): > 100 µM
- TGI (NCI/ADR-RES ovarian): > 100 µM
- TGI (OVCAR-4 ovarian): > 100 µM
- TGI (SK-OV-3 ovarian): > 100 µM
- TGI (OVCAR-8 ovarian): > 100 µM
- TGI (U251 CNS): > 100 µM
- TGI (COLO 205 colon): > 100 µM
- TGI (RXF 393 renal): 96.9 µM
- TGI (DU-145 prostate): > 100 µM
- TGI (HCT-116 colon): > 100 µM

Structure (SMILES): COc1cc(/C=C2/C(=O)N(C(=O)c3ccccc3O)N=C2C)cc(OC)c1OC
- TGI (K-562 leukemia): > 100 µM
- TGI (NCI/ADR-RES ovarian): > 100 µM
- TGI (OVCAR-4 ovarian): > 100 µM
- TGI (SK-OV-3 ovarian): > 100 µM
- TGI (OVCAR-8 ovarian): > 100 µM
- TGI (U251 CNS): > 100 µM
- TGI (COLO 205 colon): > 100 µM
- TGI (RXF 393 renal): 8.74 µM
- TGI (DU-145 prostate): > 100 µM
- TGI (HCT-116 colon): > 29 µM

Structure (SMILES): Cc1nc(-c2ccc([N+](=O)[O-])cc2)cn2c1nc1ccccc12
- TGI (K-562 leukemia): > 100 µM
- TGI (NCI/ADR-RES ovarian): > 100 µM
- TGI (OVCAR-4 ovarian): > 100 µM
- TGI (SK-OV-3 ovarian): > 100 µM
- TGI (OVCAR-8 ovarian): > 100 µM
- TGI (U251 CNS): > 100 µM
- TGI (COLO 205 colon): > 100 µM
- TGI (RXF 393 renal): > 100 µM
- TGI (DU-145 prostate): > 100 µM
- TGI (HCT-116 colon): > 100 µM

Structure (SMILES): COCOC1/C=C/CCCC#C[C@H](C)C(=O)CC1 (stereo not given in full)
- TGI (K-562 leukemia): 5.28 µM
- TGI (NCI/ADR-RES ovarian): 29 µM
- TGI (OVCAR-4 ovarian): 22.3 µM
- TGI (SK-OV-3 ovarian): 29.3 µM
- TGI (OVCAR-8 ovarian): 38 µM
- TGI (U251 CNS): 24.8 µM
- TGI (COLO 205 colon): 17.6 µM
- TGI (RXF 393 renal): 23.4 µM
- TGI (DU-145 prostate): 28 µM
- TGI (HCT-116 colon): 5.99 µM

Structure (SMILES): O=C1CCC[C@@H]2NC[C@@H](c3ccc4c(c3)OCO4)[C@H]12
- TGI (K-562 leukemia): > 25 µM
- TGI (NCI/ADR-RES ovarian): > 25 µM
- TGI (OVCAR-4 ovarian): > 25 µM
- TGI (SK-OV-3 ovarian): > 25 µM
- TGI (OVCAR-8 ovarian): > 25 µM
- TGI (U251 CNS): > 25 µM
- TGI (COLO 205 colon): > 25 µM
- TGI (RXF 393 renal): > 25 µM
- TGI (DU-145 prostate): > 25 µM
- TGI (HCT-116 colon): > 25 µM

Structure (SMILES): CCOc1cc(NC(C)=O)ccc1C(=O)NNC(=O)c1ccccc1OC(C)=O
- TGI (K-562 leukemia): > 40.3 µM
- TGI (NCI/ADR-RES ovarian): > 78.7 µM
- TGI (OVCAR-4 ovarian): > 52.4 µM
- TGI (SK-OV-3 ovarian): > 100 µM
- TGI (OVCAR-8 ovarian): > 100 µM
- TGI (U251 CNS): > 100 µM
- TGI (COLO 205 colon): > 77.9 µM
- TGI (RXF 393 renal): > 30.2 µM
- TGI (DU-145 prostate): > 67.7 µM
- TGI (HCT-116 colon): > 36.8 µM

Structure (SMILES): Cc1nnc(Nc2ccccc2)o1
- TGI (K-562 leukemia): > 100 µM
- TGI (NCI/ADR-RES ovarian): > 100 µM
- TGI (OVCAR-4 ovarian): > 100 µM
- TGI (SK-OV-3 ovarian): > 100 µM
- TGI (OVCAR-8 ovarian): > 100 µM
- TGI (U251 CNS): > 100 µM
- TGI (COLO 205 colon): > 100 µM
- TGI (RXF 393 renal): > 100 µM
- TGI (DU-145 prostate): > 100 µM
- TGI (HCT-116 colon): > 100 µM

Structure (SMILES): CCN(CC)CCc1c2c(nc3ccccc13)C(=O)c1cccnc1C2=O
- TGI (K-562 leukemia): 4.23 µM
- TGI (NCI/ADR-RES ovarian): > 100 µM
- TGI (OVCAR-4 ovarian): 3.69 µM
- TGI (SK-OV-3 ovarian): 4.22 µM
- TGI (OVCAR-8 ovarian): > 100 µM
- TGI (U251 CNS): 20 µM
- TGI (COLO 205 colon): 3.07 µM
- TGI (RXF 393 renal): 7 µM
- TGI (DU-145 prostate): 1.84 µM
- TGI (HCT-116 colon): 3.53 µM
